Test results from patent publication US10858360B2, “Tricyclic gyrase inhibitors” (priority 2011, dated 2020).
In brackets after ≈: the same amount, converted by molar mass.

Legend:
Type in all cases: cell-based
E. coli ATCC 25922 = test: MIC, E. coli ATCC 25922; details: for MIC: Escherichia coli
[1] = tested on: B. thailandensis ATCC E264; test: microbe, parasite or virus in culture
[2] = tested on: F. tularensis holarctica LVS; test: microbe, parasite or virus in culture; details: for MIC Ft: Ft = F. tularensis, strain not given
S. pneumoniae ATCC 51916 = test: MIC, S. pneumoniae ATCC 51916; details: for MIC: Streptococcus pneumoniae, ATCC51916, Spn = S. pneumoniae
[3] = tested on: K. pneumoniae ATCC 700603; test: MIC, K. pneumoniae ATCC 700603; details: for MIC Kpn: Kpn = K. pneumoniae; for MIC: Klebsiella pneumoniae, ATCC700603, read-out: MIC Kpn
A. baumannii ATCC 19606 = test: MIC, A. baumannii ATCC 19606; details: strain not given; for MIC: Acinetobacter baumannii, ATCC19606, Ab = A. baumannii
S. aureus ATCC 13709 = test: MIC, S. aureus ATCC 13709 (Alamar Blue broth microdilution); details: for MIC: Staphylococcus aureus
Y. pestis CO92 pgm- = test: microbe, parasite or virus in culture; details: for MIC Yp: Yp = Y. pestis
P. aeruginosa ATCC 15692 = test: MIC, P. aeruginosa ATCC 15692; details: for MIC: Pseudomonas aeruginosa, ATCC15692, Pa = P. aeruginosa
[4] = E. coli, Alamar Blue read after overnight incubation at 35° C.
[5] = S. aureus, Alamar Blue read after overnight incubation at 35° C.
[6] = ATCC25922, E. coli, Alamar Blue read after overnight incubation at 35° C.
[7] = ATCC25922, Ec = E. coli, strain not given
[8] = ATCC13709, S. aureus, Alamar Blue read after overnight incubation at 35° C.

Structure (SMILES) | MIC Ec (E. coli ATCC 25922; Ec = E. coli, strain not given) [µg/mL] | MIC Bt [1] [µg/mL] | MIC Ft [2] [µg/mL] | MIC Spn (S. pneumoniae ATCC 51916) [µg/mL] | MIC Kpn [3] [µg/mL] | MIC Ab (A. baumannii ATCC 19606) [µg/mL] | MIC Sa (S. aureus ATCC 13709; Sa = S. aureus) [µg/mL] | MIC Yp (Y. pestis CO92 pgm-) [µg/mL] | MIC Pa (P. aeruginosa ATCC 15692) [µg/mL] | MIC Ec (E. coli ATCC 25922; [4]) [µg/mL] | MIC Sa (S. aureus ATCC 13709; [5]) [µg/mL] | also measured
CNc1cc(F)cc2c1[nH]c1nc(Oc3cnc(C)nc3)nc(N3CC4(CCC4N)C3)c12 (stereo not drawn) [4.105] | ≤0.5 | ≤0.5 | 1 (≈ 2.3 µM) | ≤0.5 | 2 (≈ 4.6 µM) | ≤0.5 | ≤0.5 | ≤0.5 | 1 (≈ 2.3 µM) |  |  | 
CNc1cc(F)cc2c1[nH]c1nc(Oc3cnc(C)nc3)nc(N3CCC4(CCC4N)C3)c12 (stereo not drawn) [4.117] | ≤0.5 | ≤0.5 | 1 (≈ 2.23 µM) | ≤0.5 | 2 (≈ 4.46 µM) | ≤0.5 | ≤0.5 | ≤0.5 | 1 (≈ 2.23 µM) | ≤0.5 | ≤0.5 | 
CNc1cc(F)cc2c1[nH]c1nc(Oc3cnc(C)nc3)nc(N3CCC4(CC4N)C3)c12 (stereo not drawn) [4.066] |  |  |  |  |  |  |  |  |  |  |  | MIC (E. coli ATCC 25922; [6]): ≤ 0.5 µg/mL; MIC (E. coli ATCC 25922; [7]): ≤ 0.5 µg/mL; MIC ([1]; Burkholderia thailandensis, ATCCE264, read-out: MIC Bt): ≤ 0.5 µg/mL; MIC ([2]; Francisella tularensis, read-out: MIC Ft): 1 µg/mL (≈ 2.3 µM); MIC (S. pneumoniae ATCC 51916): ≤ 0.5 µg/mL; MIC [3]: 2 µg/mL (≈ 4.6 µM); MIC (A. baumannii ATCC 19606): ≤ 0.5 µg/mL; MIC (S. aureus ATCC 13709; [8]): ≤ 0.5 µg/mL; MIC (S. aureus ATCC 13709; ATCC13709, Sa = S. aureus): ≤ 0.5 µg/mL; MIC (Y. pestis CO92 pgm-; Yersinia pestis, CO92PGM, read-out: MIC Yp): ≤ 0.5 µg/mL; MIC (P. aeruginosa ATCC 15692): 2 µg/mL (≈ 4.6 µM)
CNc1cc(F)c(F)c2c1[nH]c1nc(Oc3cnc(N)nc3)nc(N3CC(N)C4(CC4)C3)c12 (stereo not drawn) [5.11] | ≤0.5 |  |  | ≤0.5 | 4 (≈ 8.82 µM) | 2 (≈ 4.41 µM) | ≤0.5 |  | 4 (≈ 8.82 µM) | ≤0.5 | ≤0.5 | 
CNc1cc(F)cc2c1[nH]c1nc(Oc3cnc(C)nc3)nc(N3CC4CCC(N)C4C3)c12 (stereo not drawn) [4.076] | ≤0.5 | 1 (≈ 2.23 µM) | 2 (≈ 4.46 µM) | ≤0.5 | 4 (≈ 8.92 µM) | ≤0.5 | ≤0.5 | ≤0.5 | 4 (≈ 8.92 µM) | ≤0.5 | ≤0.5 | 
CNc1cc(F)cc2c1[nH]c1nc(Oc3cnc(C)nc3)nc(N3CC(N)C4(CC4)C3)c12 (stereo not drawn) [4.069] | ≤0.5 | ≤0.5 | 2 (≈ 4.6 µM) | ≤0.5 | 2 (≈ 4.6 µM) | ≤0.5 | ≤0.5 | ≤0.5 | 4 (≈ 9.21 µM) |  |  | 
CNc1cc(F)cc2c1[nH]c1nc(Oc3cnc4cccnc4c3)nc(N3CC4(CCC4N)C3)c12 (stereo not drawn) [4.045] | ≤0.5 | 1 (≈ 2.13 µM) | 2 (≈ 4.25 µM) | ≤0.5 | 8 (≈ 17 µM) | ≤0.5 | ≤0.5 | ≤0.5 | 4 (≈ 8.5 µM) | ≤0.5 | ≤0.5 | 
CNc1cc(F)cc2c1[nH]c1nc(Oc3ccc(C#N)nc3)nc(N3C[C@H]4C[C@@H]3C[C@H]4N)c12 [4.434] |  |  |  |  |  |  |  |  |  |  |  | MIC (E. coli ATCC 25922; [6]): ≤ 0.5 µg/mL; MIC (E. coli ATCC 25922; [7]): ≤ 0.5 µg/mL; MIC (S. pneumoniae ATCC 51916): ≤ 0.5 µg/mL; MIC [3]: 1 µg/mL (≈ 2.25 µM); MIC (A. baumannii ATCC 19606): ≤ 0.5 µg/mL; MIC (S. aureus ATCC 13709; [8]): ≤ 0.5 µg/mL; MIC (S. aureus ATCC 13709; ATCC13709, Sa = S. aureus): ≤ 0.5 µg/mL; MIC (P. aeruginosa ATCC 15692): 1 µg/mL (≈ 2.25 µM)
